“And” between values parts separate entries of the source, which are not always exact repeats. Equal values may be shown once.
Tests used:
[1] = target: Protein kinase C alpha type (Homo sapiens, UniProt P17252)
[2] = target: Protein kinase C delta type (Homo sapiens, UniProt Q05655)
Sequence of Protein kinase C delta type (Q05655 whole entry): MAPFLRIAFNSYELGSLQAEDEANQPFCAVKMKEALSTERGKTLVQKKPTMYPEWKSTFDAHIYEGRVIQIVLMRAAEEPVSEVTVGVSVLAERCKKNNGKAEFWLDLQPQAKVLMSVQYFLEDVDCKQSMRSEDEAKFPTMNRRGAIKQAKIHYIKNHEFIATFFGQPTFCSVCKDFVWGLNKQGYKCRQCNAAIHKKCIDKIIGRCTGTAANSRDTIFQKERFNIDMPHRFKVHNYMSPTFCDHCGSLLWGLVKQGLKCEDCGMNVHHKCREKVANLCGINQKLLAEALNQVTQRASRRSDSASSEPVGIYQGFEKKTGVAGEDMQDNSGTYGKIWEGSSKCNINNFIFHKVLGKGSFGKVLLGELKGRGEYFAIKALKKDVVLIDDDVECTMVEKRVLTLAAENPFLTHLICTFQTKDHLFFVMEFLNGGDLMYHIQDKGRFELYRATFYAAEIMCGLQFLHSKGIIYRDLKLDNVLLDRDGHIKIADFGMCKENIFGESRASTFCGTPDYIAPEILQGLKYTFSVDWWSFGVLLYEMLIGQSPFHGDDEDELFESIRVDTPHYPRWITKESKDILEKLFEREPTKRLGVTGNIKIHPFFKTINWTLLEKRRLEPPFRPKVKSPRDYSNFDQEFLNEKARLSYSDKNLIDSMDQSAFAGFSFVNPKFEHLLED

SMILES: CC(C)C1C(=O)NC(CO)Cc2c[nH]c3cccc(c23)N1C (stereo not drawn) [(-)-Indolactam V (low PS)]
- Ki [1]: 12.6 nM
- Ki [2]: 8.16 nM and 43.1 nM

SMILES: C=C(C)C12OC3(c4ccccc4)OC1C1C4OC4(CO)C(O)C4(O)C(=O)C(C)=CC4C1(O3)C(C)C2OC(=O)C=Cc1ccccc1 (configuration not stated) [NSC_6437389]
- Ki [1]: 0.29 nM and 0.22 nM
- Ki [2]: 1.31 nM and 10.7 nM

SMILES: CCC(C)(C/C=C1/CC(CO)(COC(=O)CC(C)(CC)C(C)C)OC1=O)C(C)C (stereo not drawn) [B8-DL-B8 (low PS)]
- Ki [1]: 2.9 nM and 3.57 nM
- Ki [2]: 11.6 nM and 10 nM

SMILES: C=C(C)C12OC3(c4ccccc4)OC1C1C4OC4(CO)C(O)C4(O)C(=O)C(C)=CC4C1(O3)C(C)C2OC(=O)C=CC=Cc1ccccc1 (configuration not stated) [NSC_4179]
- Ki [1]: 0.27 nM
- Ki [2]: 0.55 nM

SMILES: CCCCCCCCc1ccc2c3c(c[nH]c13)CC(CO)NC(=O)C(C(C)C)N2C (configuration not stated) [CAS_159320]
- Ki [1]: 0.53 nM
- Ki [2]: 0.77 nM

SMILES: CC1=CC2C(O)(CC(CO)=CC3C4C(C)(C)C4(OC(=O)Cc4ccccc4)CC(C)C32O)C1=O (configuration not stated) [NSC_105100]
- Ki [1]: 0.14 nM
- Ki [2]: 0.56 nM

— BindingDB's records for doi:10.1124/mol.64.6.1342 (University of Pittsburgh, 2003)
